SMILES strings stand for the structures. Converted amounts (≈) assume the structure as drawn. Where two headings read alike, the source gives them in different places.

A short description of data set [1]: Water dispersity of triamterene-Gelucire 44/14 melts. The data set is classed as physicochemical. The following applies: 30 mg triamterene in melted Gelucire, drug-lipid melt in 900 ml water. The protocol:
To examine the compositions described above, triamterene was used as a model drug. […] In experiment, 30 mg triamterene was dissolved in various amounts of melted Gelucire to make the drug concentration to be 5%, 7.5%, 10% 12.5% 15% and 20%, respectively. Then the drug-lipid melts were dissolved in 900 ml of water. Up to 10% of triamterene in Gelucire, the drug was dispersed in water without precipitates. At higher drug contents (i.e. less lipids), precipitates were observed under a microscope. Drug concentration (in Gelucire) of 10% was selected-for later experiments.

The nature of data set [2]: Size distribution of drug-lipid droplets after dissolution (sub-micron particle sizer). The data set is classed as physicochemical. Conditions: triamterene from active-release tablets. The protocol: The morphologies of triamterene after dissolution in 0.1 M HCl and in water were characterized using a sub-micron particle sizer. The aliquots collected at the end of dissolution were centrifuged under the same conditions as in Example 4 prior to measurement. […] The impregnated powder was suspended in 900 ml PBS buffer at 37° C. with stirring at 100 rpm. […] The aliquots were collected at programmed time intervals, followed by centrifugation at 1000 rpm in an Eppendorf tube for 1 min.

The conditions of data set [3]: cited from earlier work.

For `Nc1nc(N)c2nc(-c3ccccc3)c(N)nc2n1` [triamterene], the “drug concentration in Gelucire dispersed in water without precipitates” value in data set [1] is on record as “Up to 10%”. The “mean diameter of droplets” value in data set [2] (dissolution in water) is given as 277 nm. Moreover, the particles after dissolution entry in data set [2] (dissolution medium 0.1 M HCl) was “no particles were detected”. For the same molecule, the solubility in data set [3] (pH 1 buffer) was 321 µg/mL (≈ 1270 µM); in data set [3] (pH 7) it was 45 µg/mL (≈ 178 µM).

(Values after patent US20040001888A1, “Solid dosage forms for rapid dissolution of poorly soluble drugs” (BioPharm Solutions Inc., priority 2002, published 2004).)
